pKi: −log10 of the molar value.
Molecular target: DNA-PK (Homo sapiens, UniProt P78527)
Assay: DNA-PK inhibition assay (radiometric, 33P-ATP)
Format: biochemical
Conditions: 100 μM ATP, competitive tight-binding fit
Method in brief: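 Approx. 6 nM DNA-PK with 10 µg/mL sheared dsDNA, 0.8 mg/mL peptide substrate and 100 µM 33P-ATP in HEPES pH 7.5, 10 mM MgCl2; 45 min, phosphoric acid quench. Phosphopeptide captured on filter plates and counted by scintillation; Ki from a competitive tight-binding model fit.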

Row | SMILES | pKi
1 | CNC(=O)c1ccnc2c([C@H](C)CNc3cc(-c4ccc(C(=O)NCCO)cc4)ncn3)cccc12 [Compound 753] | > 7.52
2 | CNC(=O)c1c(F)cnc2c([C@H](C)CNc3cc(-c4cnc(OC)c(N)c4)ncn3)cccc12 [Compound 902] | > 7.52
3 | CNC(=O)c1ccnc2c([C@H](C)CNc3cc(-c4cnc(N(C)C)nc4)ncn3)cccc12 [Compound 810] | > 7.52
4 | CNC(=O)c1ccc(C(C)CNc2cc(-c3ccc4c(cnn4CCO)c3)ncn2)c(OC)c1 (stereo not shown) [Compound 246] | > 7.52
5 | CNC(=O)c1c(F)cnc2c([C@H](C)CNc3cc(-c4csc(OC)n4)ncn3)cccc12 [Compound 787] | > 7.52
6 | CNC(=O)c1c(F)cnc2c([C@H](C)CNc3cc(-c4cnc5c(c4)COC5)ncn3)cccc12 [Compound 966] | > 7.52
7 | C[C@H](CNc1cc(-c2cc(F)c3ncccc3c2)ncn1)c1ccnc2c1OCCO2 [Compound 556] | > 7.52
8 | CNC(=O)c1ccc([C@H](C)CNc2cc(-c3ccc(NC4CCOC4)nc3)ncn2)c(OC)c1 (single isomer, unassigned) [Compound 391] | > 7.52
9 | CCOc1ncc(-c2cc(NC[C@@H](C)c3ccccc3OC)ncn2)cn1 [Compound 125] | > 7.52
10 | CCOc1ccccc1[C@H](C)CNc1cc(-c2ccc(N3CCN(C)CC3)nc2)ncn1 [Compound 152] | > 7.52
11 | CNC(=O)c1ccnc2c([C@H](C)CNc3cc(-c4cnc(C5CCC5)nc4)ncn3)ccc(F)c12 [Compound 851] | > 7.52
12 | CNC(=O)c1ccnc2c([C@H](C)CNc3cc(-c4ccc(C(=O)O)cc4)ncn3)cccc12 [Compound 672] | > 7.52
13 | COc1cscc1C(C)CNc1cc(-c2cnc3c(cnn3CCO)c2)ncn1 (stereo not shown) [Compound 261] | > 7.52
14 | CNC(=O)c1ccnc2c([C@H](C)CNc3cc(-c4ccnc(C(F)(F)F)c4)ncn3)cccc12 [Compound 812] | > 7.52
15 | CNC(=O)c1ccnc2c([C@H](C)CNc3cc(-c4cnc(NC)nc4)ncn3)ccc(F)c12 [Compound 623] | > 7.52
16 | CCNc1ccc(-c2cc(NC[C@@H](C)c3cc(F)cc4c(C(=O)NC)ccnc34)ncn2)cn1 [Compound 572] | > 7.52
17 | COc1ccccc1[C@H](C)CNc1cc(-c2cnc3c(cnn3C)c2)ncn1 [Compound 172] | > 7.52
18 | Cc1ccc(-c2cc(NCC(C)c3ccccc3OCCCO)ncn2)cn1 (stereo not shown) [Compound 182] | > 7.52
19 | CCOc1ccccc1[C@H](C)CNc1cc(-c2ccc(C)nc2)ncn1 [Compound 110] | > 7.52
20 | CNC(=O)c1ccnc2c([C@H](C)CNc3cc(-c4ccc(F)nc4)ncn3)cccc12 [Compound 603] | > 7.52
21 | CNC(=O)c1c(F)cnc2c([C@H](C)CNc3cc(-c4cnc(C)nc4)ncn3)ccc(F)c12 [Compound 645] | > 7.52
22 | Cc1ccc(-c2cc(NCC(C)c3cccc4nsnc34)ncn2)cn1 (stereo not shown) [Compound 398] | > 7.52
23 | COc1ccsc1C(C)CNc1cc(-c2cnc3c(cnn3C3CCN(C)CC3)c2)ncn1 (stereo not shown) [Compound 262] | > 7.52
24 | CNC(=O)c1ccnc2c([C@H](C)CNc3cc(-c4cnc(OC)c(OC)c4)ncn3)cccc12 [Compound 592] | > 7.52
25 | CCNc1ccc(-c2cc(NC[C@@H](C)c3ccnc4cccnc34)ncn2)cn1 [Compound 514] | > 7.52
26 | CC(=O)N1CCN(c2ccc(-c3cc(NCC(C)c4ccccc4OCc4ccccc4)ncn3)cn2)CC1 (stereo not shown) [Compound 135] | > 7.52

Row | SMILES | pKi
27 | CC(CNc1cc(-c2cnc3c(cnn3CCO)c2)ncn1)c1cc(F)c(F)cc1OC1CCC1 (stereo not shown) [Compound 382] | > 7.52
28 | CNC(=O)c1ccnc2c([C@H](C)CNc3cc(-c4ccc(NS(C)(=O)=O)cc4)ncn3)cccc12 [Compound 680] | > 7.52
29 | CNC(=O)c1ccnc2c([C@H](C)CNc3cc(-c4cnc(OC)c(N)c4)ncn3)ccc(F)c12 [Compound 910] | > 7.52
30 | COc1ccccc1[C@H](C)CNc1cc(-c2cnc3c(cnn3CC3CC3)c2)ncn1 [Compound 140] | > 7.52
31 | CNC(=O)c1ccc(C(C)CNc2cc(-c3ccc(OCCS(C)(=O)=O)nc3)ncn2)c(OC)c1 (stereo not shown) [Compound 325] | > 7.52
32 | CNC(=O)c1ccnc2c([C@H](C)CNc3cc(-c4ccc(NCC(F)F)nc4)ncn3)cccc12 [Compound 975] | > 7.52
33 | Cc1ccc(-c2cc(NC[C@@H](C)c3cccc4c(CO)ccnc34)ncn2)cn1 [Compound 568] | > 7.52
34 | CNC(=O)c1ccnc2c([C@H](C)CNc3cc(-c4ccc(NCCN5CCCC5=O)nc4)ncn3)cccc12 [Compound 703] | > 7.52
35 | COc1ccccc1CCNc1cc(-c2cnc3c(cnn3CCC(C)C)c2)ncn1 [Compound 45] | > 7.52
36 | CCNc1ncc(-c2cc(NC[C@@H](C)c3cccc4c(C(=O)NC)c(F)cnc34)ncn2)cn1 [Compound 978] | > 7.52
37 | CNC(=O)c1ccnc2c([C@H](C)CNc3cc(-c4ccc(C(C)C)nc4)ncn3)cccc12 [Compound 848] | > 7.52
38 | CNC(=O)c1ccnc2c([C@H](C)CNc3cc(-c4cncc(OC)c4)ncn3)cccc12 [Compound 878] | > 7.52
39 | CNC(=O)c1ccc([C@H](C)CNc2cc(-c3cnc4c(ccn4C4COC4)c3)ncn2)c(OC)c1 [Compound 252] | > 7.52
40 | COc1ccccc1[C@H](C)CNc1cc(-c2cnc3c(cnn3C3CN(C(C)=O)C3)c2)ncn1 [Compound 249] | > 7.52
41 | COc1ccccc1[C@H](C)CNc1cc(-c2ccnc(Nc3nn[nH]n3)c2)ncn1 [Compound 211] | > 7.52
42 | CNC(=O)c1ccnc2c([C@H](C)CNc3cc(-c4cnc(C(F)(F)F)nc4)ncn3)cccc12 [Compound 957] | > 7.52
43 | Cc1ncc(-c2cc(NC[C@@H](C)c3cccc4scnc34)ncn2)cn1 [Compound 658] | > 7.52
44 | CNc1ncc(-c2cc(NC[C@@H](C)c3cc(C)nc4c3OCC4)ncn2)cn1 [Compound 574] | > 7.52
45 | Cc1ccc(-c2cc(NCC(C)c3ccccc3OCC3CCCO3)ncn2)cn1 (stereo not shown) [Compound 195] | > 7.52
46 | COc1ccsc1C(C)CNc1cc(-c2cnc3c(cnn3CC3CC3)c2)ncn1 (stereo not shown) [Compound 232] | > 7.52
47 | CNCCNc1ccc(-c2cc(NC[C@@H](C)c3ccccc3OC)ncn2)cn1 [Compound 205] | > 7.52
48 | CNC(=O)c1ccnc2c([C@H](C)CNc3cc(-c4ccnc(N5CCC(O)CC5)c4)ncn3)cccc12 [Compound 819] | > 7.52
49 | CNC(=O)c1ccc([C@H](C)CNc2cc(-c3ccc4c(cnn4C)c3)ncn2)c(OC)c1 [Compound 293] | > 7.52
50 | CNC(=O)c1ccnc2c([C@H](C)CNc3cc(-c4cnc(C(C)(C)O)c(F)c4)ncn3)cccc12 [Compound 822] | > 7.52
51 | CNC(=O)c1ccnc2c([C@H](C)CNc3cc(-c4cnc5c(c4)CN(C(C)=O)CC5)ncn3)cccc12 [Compound 815] | > 7.52
52 | COc1ncc(-c2cc(NC[C@@H](C)c3ccnc4c3OCC4)ncn2)cc1N [Compound 589] | > 7.52

Row | SMILES | pKi
53 | CNC(=O)c1ccnc2c([C@H](C)CNc3cc(-c4ccc5c(c4)CCNC5)ncn3)cccc12 [Compound 802] | > 7.52
54 | CNC(=O)c1ccnc2c([C@H](C)CNc3cc(-c4cnc(N)c(CO)c4)ncn3)cccc12 [Compound 970] | > 7.52
55 | CNC(=O)c1ccnc2c([C@H](C)CNc3cc(-c4ccc(OC(C)C)nc4)ncn3)cccc12 [Compound 959] | > 7.52
56 | CNC(=O)c1ccnc2c([C@H](C)CNc3cc(-c4ccc(N5CC(CO)C5)nc4)ncn3)cccc12 [Compound 736] | > 7.52
57 | CNC(=O)c1ccnc2c([C@H](C)CNc3cc(-c4ccc(C)nc4)ncn3)cc(F)cc12 [Compound 562] | > 7.52
58 | CC(CNc1cc(-c2ccc(N3CCN(C)CC3)nc2)ncn1)c1cccc2cccnc12 (stereo not shown) [Compound 236] | > 7.52
59 | CNC(=O)c1ccnc2c([C@H](C)CNc3cc(-c4ccc(O)nc4)ncn3)cccc12 [Compound 799] | > 7.52
60 | Cc1ccc(-c2cc(NCC(C)c3cncc4nccnc34)ncn2)cn1 (stereo not shown) [Compound 407] | > 7.52
61 | CCNc1ccc(-c2cc(NC[C@@H](C)c3ccnc4cc(C)oc34)ncn2)cn1 [Compound 573] | > 7.52
62 | CNC(=O)c1ccc([C@H](C)CNc2cc(-c3ccc(NC(C)=O)cc3)ncn2)c(OC)c1 [Compound 317] | > 7.52
63 | CNC(=O)c1ccnc2c([C@H](C)CNc3cc(-c4cnc(CN(C)C)nc4)ncn3)cccc12 [Compound 885] | > 7.52
64 | C[C@H](CNc1cc(-c2cnc3c(cnn3C3CNC3)c2)ncn1)c1ccnc2c1OCCO2 [Compound 527] | > 7.52
65 | CNC(=O)c1c(F)cnc2c([C@H](C)CNc3cc(-c4ccc(C)nc4)ncn3)cccc12 [Compound 620] | > 7.52
66 | Cc1ccc(-c2cc(NCC(C)c3ccncc3OC3CC3)ncn2)cn1 (stereo not shown) [Compound 287] | > 7.52
67 | CNC(=O)c1c(F)cnc2c([C@H](C)CNc3cc(-c4cnc(C5CCC5)nc4)ncn3)cccc12 [Compound 856] | > 7.52
68 | C[C@H](CNc1cc(-c2ccc(N)nc2)ncn1)c1ccnc2c1OCCO2 [Compound 459] | > 7.52
69 | C[C@H](CNc1cc(-c2ccc3ncccc3c2)ncn1)c1ccnc2cccnc12 [Compound 501] | > 7.52
70 | CNC(=O)c1ccnc2c([C@H](C)CNc3cc(-c4ccc(N(C)C5CCS(=O)(=O)C5)nc4)ncn3)cccc12 (stereo partly shown) [Compound 711] | > 7.52
71 | CNC(=O)c1ccnc2c([C@H](C)CNc3cc(-c4cnc5c(c4)COC5)ncn3)cccc12 [Compound 952] | > 7.52
72 | C[C@H](CNc1cc(-c2cnc(N)c(Cl)c2)ncn1)c1ccnc2c1OCCO2 [Compound 553] | > 7.52
73 | CNC(=O)c1ccnc2c([C@H](C)CNc3cc(-c4ccc(C(C)OC)cc4)ncn3)cccc12 (stereo partly shown) [Compound 811] | > 7.52
74 | COc1cc(-c2cc(NC[C@@H](C)c3ccnc4c3OCC4)ncn2)cnc1OC [Compound 595] | > 7.52
75 | CNC(=O)c1ccc([C@H](C)CNc2cc(-c3ccc4c(c3)CNC4=O)ncn2)c(OC)c1 [Compound 312] | > 7.52
76 | CNC(=O)c1ccc(C(C)CNc2cc(-c3cnc4c(cnn4CCOC)c3)ncn2)c(OC)c1 (stereo not shown) [Compound 154] | > 7.52
